Experimental data as given in publication PMC8222254, “Self-assembly of an anion receptor with metal-dependent kinase inhibition and potent in vitro anti-cancer properties” (Nature Communications, 2021).
Values joined by “and” are separate entries in the source; they are usually repeats but may differ in a detail not shown here. Identical values can stand only once.

Tests used:
[1] = target: T1, 140 purified human kinases (Homo sapiens, UniProt Q99683); assay: Kinase inhibition screen, cell-free 33P ATP assay at 10 μM; type: biochemical
T1 sequence (Q99683 1-1374): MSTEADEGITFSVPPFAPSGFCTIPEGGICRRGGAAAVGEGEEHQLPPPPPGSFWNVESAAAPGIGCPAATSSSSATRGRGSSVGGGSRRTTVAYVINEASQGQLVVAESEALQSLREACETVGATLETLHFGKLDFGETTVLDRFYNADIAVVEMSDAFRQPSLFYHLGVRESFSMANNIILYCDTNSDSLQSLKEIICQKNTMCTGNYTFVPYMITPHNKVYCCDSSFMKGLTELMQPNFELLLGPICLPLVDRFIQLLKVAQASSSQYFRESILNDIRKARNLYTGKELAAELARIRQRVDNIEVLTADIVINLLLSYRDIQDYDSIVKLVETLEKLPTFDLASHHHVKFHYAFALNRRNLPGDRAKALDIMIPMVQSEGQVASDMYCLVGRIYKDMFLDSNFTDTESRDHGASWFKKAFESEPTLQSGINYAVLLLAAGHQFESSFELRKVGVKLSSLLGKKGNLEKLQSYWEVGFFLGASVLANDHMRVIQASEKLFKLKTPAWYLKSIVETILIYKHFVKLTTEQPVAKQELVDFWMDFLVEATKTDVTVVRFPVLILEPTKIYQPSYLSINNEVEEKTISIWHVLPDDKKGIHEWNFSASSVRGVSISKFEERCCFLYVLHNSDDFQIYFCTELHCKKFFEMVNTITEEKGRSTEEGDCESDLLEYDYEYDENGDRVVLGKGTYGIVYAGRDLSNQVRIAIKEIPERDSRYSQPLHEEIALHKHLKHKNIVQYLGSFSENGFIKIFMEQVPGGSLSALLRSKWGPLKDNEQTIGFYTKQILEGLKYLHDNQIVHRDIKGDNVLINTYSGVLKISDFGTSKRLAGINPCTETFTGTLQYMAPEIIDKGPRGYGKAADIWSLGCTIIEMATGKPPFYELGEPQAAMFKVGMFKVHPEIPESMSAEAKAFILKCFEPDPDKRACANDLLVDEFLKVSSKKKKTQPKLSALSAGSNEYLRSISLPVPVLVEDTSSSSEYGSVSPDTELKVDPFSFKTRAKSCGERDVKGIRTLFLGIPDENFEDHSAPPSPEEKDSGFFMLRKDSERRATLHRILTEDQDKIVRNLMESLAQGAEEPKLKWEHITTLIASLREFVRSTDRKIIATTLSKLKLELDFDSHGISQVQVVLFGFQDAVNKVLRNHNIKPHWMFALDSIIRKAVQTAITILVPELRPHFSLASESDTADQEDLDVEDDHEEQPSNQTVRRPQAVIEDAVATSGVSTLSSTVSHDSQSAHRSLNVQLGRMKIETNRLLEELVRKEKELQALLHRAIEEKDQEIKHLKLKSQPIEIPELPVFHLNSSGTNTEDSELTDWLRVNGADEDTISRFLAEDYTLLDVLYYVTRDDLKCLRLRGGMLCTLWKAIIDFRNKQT
Outline: (§1)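 Each complex tested in duplicate at 10 μM; cell-free radiometric assay using ^33P ATP on purified enzymes. Hits mapped by HGNC symbol onto the kinome tree.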

[2] = target: T2, 140 purified human kinases (Homo sapiens, UniProt Q15831); assay: as above; type: biochemical
T2 sequence (Q15831 1-433): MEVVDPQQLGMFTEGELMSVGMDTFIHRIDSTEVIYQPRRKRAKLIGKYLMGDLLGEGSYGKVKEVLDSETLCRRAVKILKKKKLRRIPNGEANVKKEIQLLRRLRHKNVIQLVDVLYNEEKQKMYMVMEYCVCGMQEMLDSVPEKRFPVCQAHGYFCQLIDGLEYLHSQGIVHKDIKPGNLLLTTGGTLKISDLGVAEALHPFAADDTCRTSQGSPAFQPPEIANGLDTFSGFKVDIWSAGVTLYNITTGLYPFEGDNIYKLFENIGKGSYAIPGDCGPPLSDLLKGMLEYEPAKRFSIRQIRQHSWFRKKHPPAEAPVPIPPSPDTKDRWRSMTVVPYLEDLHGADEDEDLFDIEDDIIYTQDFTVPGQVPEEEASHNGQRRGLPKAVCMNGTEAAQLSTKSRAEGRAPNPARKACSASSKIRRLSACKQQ
Outline: as §1

SMILES	% Inhibition Run 1 ([1]; ASK1) [%]	% Inhibition Run 2 ([1]; ASK1) [%]	% Inhibition, Mean ([1]; ASK1) [%]	mean % activity ([1]; ASK1) [%]	% activity ([1]; ASK1, Run 1) [%]	% activity ([1]; ASK1, Run 2) [%]	% Inhibition Run 1 ([2]; LKB1) [%]	% Inhibition Run 2 ([2]; LKB1) [%]	% Inhibition, Mean ([2]; LKB1) [%]	mean % activity ([2]; LKB1) [%]	% activity ([2]; LKB1, Run 1) [%]	% activity ([2]; LKB1, Run 2) [%]	% Inhibition, Run 1 / Run 2 ([1]; ASK1)	% activity ([1]; ASK1, duplicate runs)	% Activation, Mean value ([2]; LKB1) [%]	% activity ([2]; LKB1, duplicate runs)
[Cu+2].[Cu+2].[Cu+2].c1ccc(-c2csc(NCCN(CCNc3nc(-c4ccccn4)cs3)CCNc3nc(-c4ccccn4)cs3)n2)nc1.c1ccc(-c2csc(NCCN(CCNc3nc(-c4ccccn4)cs3)CCNc3nc(-c4ccccn4)cs3)n2)nc1 [[L2Cu3]6+]	16.4	15.5	16	84	83.6	84.5	22.9	29.1	26	74	77.1	70.9				
CC(=O)[O-].CC(=O)[O-].CC(=O)[O-].CC(=O)[O-].CC(=O)[O-].CC(=O)[O-].[Zn+2].[Zn+2].[Zn+2].c1ccc(-c2csc(NCCN(CCNc3nc(-c4ccccn4)cs3)CCNc3nc(-c4ccccn4)cs3)n2)nc1.c1ccc(-c2csc(NCCN(CCNc3nc(-c4ccccn4)cs3)CCNc3nc(-c4ccccn4)cs3)n2)nc1 [[L2Zn3]6+]			27	73					-9	109			31% and 24%	70% and 76%	9	101% and 116%
